Tests used:
[1] = test system: human cancer cell lines; test: In vitro cytotoxicity toward cancer cells compared to cisplatin (MTT); format: cell-based; conditions: MTT 72 h
Protocol: The in vitro cytotoxicity of 1–3 and Au1a to human cancer cell lines (HeLa, NCI-H460, HCT116, A2780) and the cisplatin- and doxorubicin-resistant cancer cell lines (A2780cis and A2780adr), as well as normal human colon mucosal epithelial cell line (NCM460), non-tumorigenic immortalized liver cells (MIHA) and normal lung fibroblast cells (CCD-19Lu), was evaluated using a 3-(4,5-dimethyl-2-thiazolyl)-2,5-diphenyltetrazolium bromide (MTT) assay (Table 1; Fig. S5a ^†). […] The low toxicity of 1 was also found in experiments with non-tumorigenic liver L02 and gliocyte CHEM-5 cells (Table S5 ^†). […]
The gold content of the nanocomposites was determined by dissolving the nanocomposites in conc. […]
The content of DOX in the nanocomposites was measured as follows. […] The solution was then diluted and filtered, and the content of DOX in the nanocomposite was determined by UPLC with photodiode array detector using daunorubicin hydrochloride (3.6 µM) as the internal standard. […]
hydrochloride standard over the peak area of daunorubicin hydrochloride (3.6 µM) in the UPLC chromatograms of the doxorubicin hydrochloride standard spiked with daunorubicin hydrochloride (3.6 µM). The encapsulation efficiency of DOX by nanostructures of 1 was calculated by the equation: […]
which reflected the amount of blue formazan formed. IC50 values were then determined by CompuSyn S6 from three independent measurements. […]

[2] = test system: HCT116 cells; test: Co-culture model of HCT116 and NCM460, FITC-Annexin V flow cytometry; format: cell-based, human; conditions: HCT116 in co-culture with CMF2HC-stained NCM460, 2 μM, 24 h
Protocol: (§1) To further verify the ability of 1 to selectively induce apoptosis of HCT116 cells over NCM460 cells, HCT116 and NCM460 cells were co-cultured and incubated with 1 for 24 h, and then stained with FITC-Annexin V and propidium iodide. In order to differentiate the two different cell lines, NCM460 cells were pre-treated with blue-emissive CMF2HC dye prior to its co-culture with HCT116 cells. […] In a parallel experiment, co-cultured cells treated with 1 for 24 h and stained with FITC-Annexin V and propidium iodide were imaged by fluorescence microscopy (Fig. 4a). Green and red fluorescence were primarily observed in cells without showing blue luminescence, i.e. HCT116 cells. […] The results of both the fluorescence microscopy and flow cytometry support the high selectivity of 1 on killing colon cancer cells in the co-culture model of cancer and normal cells.
(§2) atmosphere of 5% CO2. After reaching 80% confluency, the culture medium was
(§3) of 5% CO2 for 45 min. The solution was then removed. The stained NCM460 cells
(§4) the procedure described above.
(§5) right fore of BALB/c nude mice. When the tumor volume reached 70 mm3 after […]

[3] = test system: NCM460 cells; test: as above; format: cell-based, human; conditions: CMF2HC-stained NCM460 in co-culture with HCT116, 2 μM, 24 h
Protocol: as §1, §2, §3, §4, §5

[4] = test system: NCM460 cells; test: Flow cytometric analysis of apoptosis with propidium iodide co-staining (Fig. S14, S15); conditions: NCM460, 2 μM
Protocol: Analysis of induction of apoptosis in HCT116 and NCM460 cells after incubation
with gold(III) complexes and FITC-annexin V staining by flow cytometry.
dishes respectively. The cells were incubated at 37 °C under an atmosphere of 5%
CO2 for 48 h. The culture medium was then removed, washed with PBS solution. The
cells were then incubated with culture medium containing nanostructures of 1 (2 µM)
or Au1a (2 µM; with 1 vol% DMSO) at 37 °C under an atmosphere of 5% CO2 for 24
h. All the cells were harvested, and washed with PBS solution and annexin-binding
buffer solution. The cells were collected by centrifugation at 2000 rpm for 5 min, and
re-dispersed in annexin-binding buffer solution with cell concentration of ca. 110 6
cells/mL. FITC- Annexin V (5 µL) was added to an aliquot of the cell suspension
(100 µL), and the cells were incubated at room temperature in dark for 15 min. The
solution mixture was then diluted by annexin-binding buffer solution (400 µL), kept
in ice and analyzed by flow cytometry immediately.
with gold(III) complexes by CellEvent Caspase-3/7 Green Detection Reagent
staining and flow cytometry. The procedure is similar to that using FITC-Annexin V
staining, except that the harvested cells were re-dispersed in PBS solution with 2%
BSA (w/w; 100 µL) and incubated with CellEvent Caspase-3/7 Green Detection
Reagent (2.5 µM) at 37 °C for 30 min, and subsequently stained with propidium […]

Row | Molecule | times more cytotoxic than cisplatin [1] | cells undergoing apoptosis (FITC-Annexin V, corrected) [2] | cells undergoing apoptosis (FITC-Annexin V, corrected) [3] | viability (Q3 region, corrected) ([4]; 24 h) | viability (Q3 region, corrected) ([4]; 36 h)
1 | [Au(TPP–COO–PEG5000–OCH3)]Cl [Compound 1] | 5.1–76.9 times | 20.6% | 1.87% | – | –
2 | C1=Cc2nc1c(-c1ccccc1)c1ccc([n-]1)c(-c1ccccc1)c1nc(c(-c3ccccc3)c3ccc([n-]3)c2-c2ccccc2)C=C1.[Au+3].[Cl-] [Au1a, [Au(TPP)]Cl, reference compound] | – | – | – | 61.14% | 56.64%

Source: article PMC5384453, “A multi-functional PEGylated gold(III) compound: potent anti-cancer properties and self-assembly into nanostructures for drug co-delivery” (Chemical Science, 2016)
